Measurements as given in PubChem BioAssay AID1963853 (Molecular Pharmacology Branch, DTP, NCI, 2024).

System: 266295-075-R-J1-PDC spheroid viability
Experiment: Anticancer human tumor 266295-075-R-J1-PDC patient-derived head and neck squamous carcinoma cell line growth inhibition [POLQ]
Conditions: spheroids with HUVEC and MSC; for IC50: curve of first compound; for viability, T/C: stronger effect = lower value
Experimental: Multicellular complex tumor spheroid response to Polymerase (POL) inhibitors (novobiocin, ART-558, RP6685) in combination with a variety of drugs and investigational agents in selected tumor cell lines
The POL inhibitors (novobiocin, ART-558, and RP6685) were evaluated both individually and in combination with standard of care and investigational anticancer small molecules within a complex spheroid model of solid tumors. . Complex spheroids include a stromal component modeled by human endothelial cells (HUVEC) and fibroblasts modeled by human mesenchymal stem cells (MSCs). The concentration ranges selected for each drug and investigational agent were based upon clinically achievable concentrations if the clinical Cmax of the agent was known.
Compounds. The drugs and investigational agents: novobiocin (NSC847541), ART-558 (NSC835418), RP-6685 (NSC848927), peposertib (NSC802822), ceralasertib (NSC780249), elimusertib (NSC800525), camonsertib (NSC841442), AZD-1390 (NSC803789), olaparib (NSC753686), talazoparib (NSC767125), rucaparib (NSC756644), sotorasib (NSC818433), MRTX-1133 (NSC836407), SN-38 (NSC673596), topotecan (NSC609699), epotoside (NSC141540), doxorubicin (NSC123127), gemcitabine (NSC613327), 5-fluorouracil (NSC19893), paclitaxel (NSC125973), vemurafenib (NSC761431), MSA-2 (NSC828583), SN-011 (NSC837082), adavosertib (NSC754352), prexasertib (NSC758257), carboplatin (NSC241240) and oxaliplatin (NSC266046), were obtained from the National Cancer Institute (NCI) Developmental Therapeutics Program Chemical Repository (21). The FDA-approved anticancer drug set is available from the Developmental Therapeutics Program at https://dtp.cancer.gov/organization/dscb/obtaining/. […] The stock solutions were prepared in dimethyl sulfoxide (DMSO, Sigma-Aldrich, St. Louis, MO, cat. D2650), except for the platinum compounds which were prepared in saline (Quality Biological, Gaithersburg, MD, cat. 114-055-101), at 800-fold the tested concentration and stored at -70 degrees C prior to their use. All drugs and investigational agents were tested over a range starting from a high concentration at or near the clinical Cmax and decreasing in half-log increments. If the clinical Cmax for an agent had not been determined, the highest concentration tested was 10 microM, except for SN-38, which was tested at a high concentration of 1 microM.
Cell Culture. All cells were maintained in an incubator at 37 degrees C and 5% CO2 with 95% humidity. The PDC lines were cultured according to standard operating procedures established by the NCI PDMR (https://pdmr.cancer.gov). Table 3 of the manuscript, lists the cell lines along with the number of the three cell types plated to form the mct-spheroids and media for tumor cell growth. After thawing, all PDC lines, except 997537-175-T-J1-PDC and 415267-285-R-J2-PDC, were cultured in Matrigel-coated flasks prepared with a working solution of 1X Ham's F-12 nutrient mix, without supplementation (Thermo Fisher Scientific, cat. 11765054), 100 U/mL penicillin-streptomycin (Thermo Fisher Scientific, cat. 15140122), and 2.5% Matrigel (Corning Inc., Corning, NY, cat. 354248) for the first three passages. The two PDC lines 997537-175-T-J1-PDC and 415267-285-R-J2-PDC were cultured on uncoated flasks. The 857933-349-R-J2-PDC line was cultured in 6C/Colon 1B media containing advanced DMEM/F-12 (Thermo Fisher Scientific, cat. 12634028), 10 mM HEPES (Thermo Fisher Scientific, cat. 15630080), 1X GlutaMAX supplement (Thermo Fisher Scientific, cat. 35050061), 0.1 mg/mL primocin (InvivoGen, San Diego, CA, cat. ant-pm-2), 10% defined fetal bovine serum, heat inactivated (HyClone Laboratories Inc., Logan, UT, cat. SH30070.03HI), 50% L-WRN conditioned media (ATCC, cat. CRL-3276), 1.25 mM N-Acetyl-L-cysteine (Sigma-Aldrich, cat. A9165), 10 mM nicotinamide (Sigma-Aldrich, cat. N0636), 1X B-27 supplement (Thermo Fisher Scientific, cat. 17504044), 1X N-2 supplement (Thermo Fisher Scientific, cat. […]

[1] = second compound 0.0316 µM, first compound 0.000316 µM
[2] = second compound 0.0316 µM, first compound 0.001 µM
[3] = second compound 0.0316 µM, first compound 0.00316 µM
[4] = second compound 0.0316 µM, first compound 0.01 µM
[5] = second compound 0.0316 µM, first compound 0.0316 µM
[6] = second compound 0.0316 µM, first compound 0.1 µM
[7] = second compound 0.1 µM, first compound 0.000316 µM
[8] = second compound 0.1 µM, first compound 0.001 µM
[9] = second compound 0.1 µM, first compound 0.00316 µM
[10] = second compound 0.1 µM, first compound 0.01 µM
[11] = second compound 0.1 µM, first compound 0.0316 µM
[12] = second compound 0.1 µM, first compound 0.1 µM
[13] = second compound 0.316 µM, first compound 0.000316 µM
[14] = second compound 0.316 µM, first compound 0.001 µM
[15] = second compound 0.316 µM, first compound 0.00316 µM
[16] = second compound 0.316 µM, first compound 0.01 µM
[17] = second compound 0.316 µM, first compound 0.0316 µM
[18] = second compound 0.316 µM, first compound 0.1 µM
[19] = second compound 1 µM, first compound 0.000316 µM
[20] = second compound 1 µM, first compound 0.001 µM
[21] = second compound 1 µM, first compound 0.00316 µM
[22] = second compound 1 µM, first compound 0.01 µM
[23] = second compound 1 µM, first compound 0.0316 µM
[24] = second compound 1 µM, first compound 0.1 µM
[25] = second compound 3.16 µM, first compound 0.000316 µM
[26] = second compound 3.16 µM, first compound 0.001 µM
[27] = second compound 3.16 µM, first compound 0.00316 µM
[28] = second compound 3.16 µM, first compound 0.01 µM
[29] = second compound 3.16 µM, first compound 0.0316 µM
[30] = second compound 3.16 µM, first compound 0.1 µM
[31] = second compound 10 µM, first compound 0.000316 µM
[32] = second compound 10 µM, first compound 0.001 µM
[33] = second compound 10 µM, first compound 0.00316 µM
[34] = second compound 10 µM, first compound 0.01 µM
[35] = second compound 10 µM, first compound 0.0316 µM
[36] = second compound 10 µM, first compound 0.1 µM
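Also: spheroids exposed to compounds for seven days before readout.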

`CC[C@@]1(O)C(=O)OCc2c1cc1n(c2=O)Cc2cc3c(CN(C)C)c(O)ccc3nc2-1` + Cc1cccc(N(C)C(=O)C2C(O)CCN2c2nc(C)cc(C(F)(F)F)c2C#N)c1 showed an IC50 (second compound 0.0316 µM) greater than 100 nM, an IC50 (second compound 0.1 µM) greater than 100 nM and an IC50 (second compound 0.316 µM) greater than 100 nM. It also gave an IC50 (second compound 1 µM) greater than 100 nM, an IC50 (second compound 3.16 µM) greater than 100 nM and an IC50 (second compound 10 µM) greater than 100 nM. The viability, T/C [1] was 75%, the viability, T/C [2] was 85.8% and the viability, T/C [3] was 107%. It also gave a viability, T/C [4] of 83.8%, a viability, T/C [5] of 91.3% and a viability, T/C [6] of 76.3%. It also gave a viability, T/C [7] of 94.2%, a viability, T/C [8] of 90.1% and a viability, T/C [9] of 77.6%. It also gave a viability, T/C [10] of 81.2%, a viability, T/C [11] of 86.6% and a viability, T/C [12] of 77.8%. It also gave a viability, T/C [13] of 101%, a viability, T/C [14] of 88% and a viability, T/C [15] of 88%. The viability, T/C [16] was 86.8%, the viability, T/C [17] was 106% and the viability, T/C [18] was 93.9%. For the same compound, the viability, T/C [19] was 79%, the viability, T/C [20] was 103% and the viability, T/C [21] was 85.2%. It also gave a viability, T/C [22] of 91.2%, a viability, T/C [23] of 92.3% and a viability, T/C [24] of 87.7%. The viability, T/C [25] was 78%, the viability, T/C [26] was 94.2% and the viability, T/C [27] was 92.4%. The viability, T/C [28] was 87.2%, the viability, T/C [29] was 91.9% and the viability, T/C [30] was 78.2%. For the same compound, the viability, T/C [31] was 122%, the viability, T/C [32] was 93.8% and the viability, T/C [33] was 93.3%. It also gave a viability, T/C [34] of 109%, a viability, T/C [35] of 115% and a viability, T/C [36] of 88.4%.

With `Cn1ncnc1[C@H]1c2n[nH]c(=O)c3cc(F)cc(c23)N[C@@H]1c1ccc(F)cc1` + COC1C(OC(N)=O)C(O)C(Oc2ccc3c(O)c(NC(=O)c4ccc(O)c(CC=C(C)C)c4)c(=O)oc3c2C)OC1(C)C the IC50 (second compound 0.0316 µM) was greater than 100 nM, the IC50 (second compound 0.1 µM) was greater than 100 nM and the IC50 (second compound 0.316 µM) was greater than 100 nM. The IC50 (second compound 1 µM) was greater than 100 nM, the IC50 (second compound 3.16 µM) was greater than 100 nM and the IC50 (second compound 10 µM) was greater than 100 nM. It also gave a viability, T/C [1] of 85%, a viability, T/C [2] of 97.4% and a viability, T/C [3] of 93%. It also gave a viability, T/C [4] of 99.9%, a viability, T/C [5] of 85.9% and a viability, T/C [6] of 97.1%. For the same compound, the viability, T/C [7] was 97.9%, the viability, T/C [8] was 92.7% and the viability, T/C [9] was 70.2%. It also gave a viability, T/C [10] of 98.5%, a viability, T/C [11] of 93.4% and a viability, T/C [12] of 79.9%. The viability, T/C [13] was 106%, the viability, T/C [14] was 87.5% and the viability, T/C [15] was 97.6%. The viability, T/C [16] was 103%, the viability, T/C [17] was 86% and the viability, T/C [18] was 83.2%. It also gave a viability, T/C [19] of 97.2%, a viability, T/C [20] of 86.3% and a viability, T/C [21] of 88.6%. The viability, T/C [22] was 83.7%, the viability, T/C [23] was 93.4% and the viability, T/C [24] was 78.9%. The viability, T/C [25] was 86%, the viability, T/C [26] was 106% and the viability, T/C [27] was 87.2%. The viability, T/C [28] was 84.5%, the viability, T/C [29] was 94.3% and the viability, T/C [30] was 80.5%. For the same compound, the viability, T/C [31] was 101%, the viability, T/C [32] was 80.8% and the viability, T/C [33] was 86.9%. It also gave a viability, T/C [34] of 104%, a viability, T/C [35] of 88.7% and a viability, T/C [36] of 83.2%.
